Here are results for 23 sequences from patent publication US8012944B2, “Method for treating cancer using IAP antisense oligomer and chemotherapeutic agent” (Pharmascience Inc., priority 2003, dated 2011).

The test system of data set [1] is XIAP mRNA. Kind of data set: XIAP mRNA knock-down in H460 cells (real-time RT-PCR / TaqMan). The data set is classed as cell-based, human. Here is the method: RNA was extracted from cells lysed in RLT buffer (QIAGEN, Valencia, Calif.), and purified using QIAGEN RNeasy columns/kits. Real-time quantitative PCR was performed on a Perkin-Elmer ABI 7700 Prism PCR machine. RNA was reverse transcribed and amplified according to the TaqMan Universal PCR Master Mix protocol of PE Biosystems, using primers and probes designed to specifically recognize XIAP, HIAP1, survivin, or GAPDH. For human survivin, the forward primer was 5′-[…]-3′ (SEQ ID NO: 263), the reverse primer was 5′-GAAAGGAAAGCGCAACCG-3′ (SEQ ID NO: 264), and the probe was 5′-(FAM)[…](TAMRA)-3′ (SEQ ID NO: 265). For human HIAP1, the forward primer was 5′-[…]-3′ (SEQ ID NO: 266), the reverse primer was 5′-[…]-3′ (SEQ ID NO: 267), and the probe was 5′-(FAM)[…](TAMRA)-3′ (SEQ ID NO: 268). For human XIAP, the forward primer was 5′-[…]-3′ (SEQ ID NO: 269), the reverse primer was 5′-[…]-3′ (SEQ ID NO: 270), and the probe was 5′-(FAM)[…](TAMRA)-3′ (SEQ ID NO: 271). For human GAPDH, the forward primer was 5′-GAAGGTGAAGGTCGGAGTC-3′ (SEQ ID NO: 272), the reverse primer was 5′-GAAGATGGTGATGGGATTC-3′ (SEQ ID NO: 273), and the probe was 5′-(JOE)[…](TAMRA)-3′ (SEQ ID NO: 274). FAM is 6-carboxyfluoroscein, JOE is 6-carboxy-4,5-dichloro-2,7-dimethoxyfluoroscein, and TAMRA is 6-carboxy-N,N,N′,N′-tetramethylrhodamine. FAM and JOE are 5′ reporter dyes, while TAMRA is a 3′ quencher dye.
Relative quantification of gene expression was performed as described in the PE Biosystems manual using GAPDH as an internal standard. The comparative Ct (cycle threshold) method was used for relative quantitation of IAP mRNA levels compared to GAPDH mRNA levels. Briefly, real-time fluorescence measurements were taken at each PCR cycle and the threshold cycle (Ct) value for each sample was calculated by determining the point at which fluorescence exceeded a threshold limit of 30 times the baseline standard deviation. The average baseline value and the baseline SD are calculated starting from the third cycle baseline value and stopping at the baseline value three cycles before the signal starts to exponentially rise. The PCR primers and/or probes for the specific IAPs were designed to span at least one exon-intron boundary separated by 1 kb or more of genomic DNA, to reduce the possibility of amplifying and detecting genomic DNA contamination. The specificity of the signal, and possible contamination from DNA, were verified by treating some RNA samples with either DNase or RNase, prior to performing the reverse transcription and PCR reaction steps.
A portion of the 96 nucleobase oligomers depicted in Table 2 were rescreened for their ability to knock-down XIAP mRNA in NCI-H460 cells at […] post-transfection.
One day prior to transfection, H460 cells were plated in 6- or 96-well tissue culture plates. Phosphorothioate antisense oligonucleotides were delivered into cells with Lipofectamine 2000 (Life Technologies) in the form of liposome-oligonucleotide complexes. Following a 4.5 or 6 h transfection, the transfection medium was replaced with RPMI medium containing 10% FBS, and the cells incubated for another 24 or 48 h.
Total RNA from H460 cells treated with liposome-oligonucleotide complexes for 6 hours was immediately isolated using RNeasy mini spin columns and DNase treatment (QIAGEN, Valencia, Calif.). Specific XIAP mRNA was measured using a real-time quantitative RT-PCR method. […]

Data set [2] relates to XIAP mRNA. Described as above. Format: cell-based, human. The conditions noted are these: 2 × 2 MBO; NCI-H460 cells, 9 hours post-transfection; relative level (mock control 1.01).

Oligonucleotides are written 5' to 3', each unit as a sugar letter and its base; * is a phosphorothioate linkage, no mark a phosphodiester; rarer units and linkages stand in square brackets, end groups in braces. Plain capitals give the bases only. d = 2'-deoxy (DNA); m = 2'-O-methyl

Turning to “TAGATCTGGAACCAGAACC (antisense; sugars from the 5' end m2 d15 m2, backbone, methylation of C and T or U not given here; further chemistry not fully specified) [Code C10]”, in the data set with XIAP mRNA [1], the “XIAP down-regulation H460 RNA” value worked out at 53%. Also, the “XIAP RNA” value in the data set on XIAP mRNA [2] was determined as 0.56.

“ATTCAATCAGGGTAATAAG (antisense; sugars from the 5' end m2 d15 m2, backbone, methylation of C and T or U not given here; further chemistry not fully specified) [Code E11]”: in the data set with XIAP mRNA [1], the “XIAP down-regulation H460 RNA” value is reported as 48%. Also, in the data set with XIAP mRNA [2], the “XIAP RNA” value is listed as 0.52.

Take “TCGGGTATATGGTGTCTGA (antisense; chemistry not fully specified) [Code A6]”: the “XIAP down-regulation H460 RNA” value in the data set with XIAP mRNA [1] is 72%. The “XIAP RNA” value in the data set with XIAP mRNA [2] was 0.27.

In the case of “ATTCGCACAAGTACGTGTT (antisense; sugars from the 5' end m2 d15 m2, backbone, methylation of C and T or U not given here; further chemistry not fully specified) [Code D12]”, the “XIAP down-regulation H460 RNA” value with XIAP mRNA [1] is given as 77%. Further, the “XIAP RNA” value in the data set on XIAP mRNA [2] is listed as 0.23.

As to “CAGATATATATGTAACACT (antisense; sugars from the 5' end m2 d15 m2, backbone and T or U not given here; further chemistry not fully specified) [Code C1]”, the “XIAP down-regulation H460 RNA” value in the data set with XIAP mRNA [1] amounted to 66%. For the same sequence, in the data set on XIAP mRNA [2], the “XIAP RNA” value is 0.3.

In the case of “GTGTCTGATATATCTACAA (antisense; sugars from the 5' end m2 d15 m2, backbone and T or U not given here; further chemistry not fully specified) [Code H5]”, the “XIAP down-regulation H460 RNA” value in the data set with XIAP mRNA [1] was found to be 39%. In the data set on XIAP mRNA [2], the “XIAP RNA” value amounted to 0.59.

Take “GCGGCCCAAAACAAAGAAG (antisense CCGGCCCAAAACAAAGAAG; sugars from the 5' end m2 d15 m2, linkages s1 o16 s1 (s phosphorothioate, o phosphodiester), methylation of C not given here) [Code C7]”: in the data set with XIAP mRNA [1], the “XIAP down-regulation H460 RNA” value was 72%. In the data set on XIAP mRNA [2], the “XIAP RNA” value turned out to be 0.27.

Regarding “AAAATTCTAAGTACCTGCA (mA*mAdAdAdTdTdCdTdAdAdGdTdAdCdCdTdGmC*mA; antisense) [Code A1]”, in the data set with XIAP mRNA [1], the “XIAP down-regulation H460 RNA” value was 48%. Further, the “XIAP RNA” value in the data set on XIAP mRNA [2] is given as 0.46.

With “ACACGACCGCTAAGAAACA (antisense ACACGACCGCNAAGAAACA; sugars from the 5' end m2 d15 m2, linkages s1 o16 s1 (s phosphorothioate, o phosphodiester), the base at N not given here) [Code H2]”, in the data set with XIAP mRNA [1], the “XIAP down-regulation H460 RNA” value turned out to be 46%. Also, in the data set on XIAP mRNA [2], the “XIAP RNA” value was found to be 0.56.

With “AGCACATGGGACACTTGTC (antisense; sugars from the 5' end m2 d15 m2, backbone, methylation of C and T or U not given here; further chemistry not fully specified) [Code B11]”, the “XIAP down-regulation H460 RNA” value in the data set on XIAP mRNA [1] was determined as 63%. For the same sequence, in the data set with XIAP mRNA [2], the “XIAP RNA” value was 0.39.

On to “GCAGAATAAAACTAATAAT (antisense; sugars from the 5' end m2 d15 m2, backbone and T or U not given here; further chemistry not fully specified) [Code D2]”, for which the “XIAP down-regulation H460 RNA” value in the data set with XIAP mRNA [1] stood at 39%. Also, the “XIAP RNA” value in the data set on XIAP mRNA [2] was 0.66.

For “ACATAGTGTTTTGCCACTT (antisense; sugars from the 5' end m2 d15 m2, backbone, methylation of C and T or U not given here; further chemistry not fully specified) [Code F12]”, in the data set with XIAP mRNA [1], the “XIAP down-regulation H460 RNA” value was 74%. Moreover, the “XIAP RNA” value in the data set on XIAP mRNA [2] amounted to 0.26.

For the sequence “CTTTGATCTGGCTCAGACT (antisense; sugars from the 5' end m2 d15 m2, backbone, methylation of C and T or U not given here; further chemistry not fully specified) [Code G12]”, in the data set with XIAP mRNA [1], the “XIAP down-regulation H460 RNA” value was 76%. In addition, in the data set on XIAP mRNA [2], the “XIAP RNA” value is recorded as 0.24.

For “AATGTGAAACACAAGCAAC (antisense AANGNGAAACACAAGCAAC; sugars from the 5' end m2 d15 m2, linkages s1 o16 s1 (s phosphorothioate, o phosphodiester), the base at N not given here) [Code C3]”, in the data set on XIAP mRNA [1], the “XIAP down-regulation H460 RNA” value was 43%. Further, in the data set with XIAP mRNA [2], the “XIAP RNA” value stood at 0.55.

Consider “GGCCAGTTCTGAAAGGACT (antisense; sugars from the 5' end m2 d15 m2, backbone and T or U not given here; further chemistry not fully specified) [Code D6]”, for which, in the data set on XIAP mRNA [1], the “XIAP down-regulation H460 RNA” value worked out at 60%. For the same sequence, the “XIAP RNA” value in the data set with XIAP mRNA [2] is 0.39.

On to “GTTAGTGATGGTGTTTTGT (antisense; sugars from the 5' end m2 d15 m2, backbone and T or U not given here; further chemistry not fully specified) [Code E9]”, for which the “XIAP down-regulation H460 RNA” value in the data set with XIAP mRNA [1] came out at 43%. For the same sequence, the “XIAP RNA” value in the data set on XIAP mRNA [2] turned out to be 0.69.

Regarding “GAAACCACATTTAACAGTT (antisense; sugars from the 5' end m2 d15 m2, backbone, methylation of C and T or U not given here; further chemistry not fully specified) [Code H12]”, the “XIAP down-regulation H460 RNA” value with XIAP mRNA [1] is on record as 52%. The “XIAP RNA” value in the data set on XIAP mRNA [2] is listed as 0.48.

As to “GTCAAATCATTAATTAGGA (antisense; sugars from the 5' end m2 d15 m2, backbone and T or U not given here; further chemistry not fully specified) [Code B2]”, the “XIAP down-regulation H460 RNA” value in the data set with XIAP mRNA [1] came to 55%. Moreover, the “XIAP RNA” value with XIAP mRNA [2] is reported as 0.45.

Consider “TTCAGTTTTCCACCACAAC (antisense; sugars from the 5' end m2 d15 m2, backbone, methylation of C and T or U not given here; further chemistry not fully specified) [Code H6]”, for which the “XIAP down-regulation H460 RNA” value in the data set on XIAP mRNA [1] is 68%. In addition, the “XIAP RNA” value in the data set on XIAP mRNA [2] turned out to be 0.31.

For “CTAAATACTAGAGTTCGAC (antisense; sugars from the 5' end m2 d15 m2, backbone and T or U not given here; further chemistry not fully specified) [Code G2]”, in the data set with XIAP mRNA [1], the “XIAP down-regulation H460 RNA” value was 55%. Also, the “XIAP RNA” value in the data set with XIAP mRNA [2] amounted to 0.44.

“GTTATAGGAGCTAACAAAT (antisense; sugars from the 5' end m2 d15 m2, backbone and T or U not given here; further chemistry not fully specified) [Code B3]”: in the data set on XIAP mRNA [1], the “XIAP down-regulation H460 RNA” value was found to be 34%. For the same sequence, the “XIAP RNA” value in the data set with XIAP mRNA [2] was found to be 0.64.

Turning to “ATATTTCTATCCATACAGA (antisense; sugars from the 5' end m2 d15 m2, backbone, methylation of C and T or U not given here; further chemistry not fully specified) [Code G10]”, the “XIAP down-regulation H460 RNA” value in the data set with XIAP mRNA [1] is reported as 56%. For the same sequence, the “XIAP RNA” value in the data set with XIAP mRNA [2] turned out to be 0.49.

For the sequence “AAGCTTCTCCTCTTGCAGG (antisense; sugars from the 5' end m2 d15 m2, linkages s1 o16 s1 (s phosphorothioate, o phosphodiester), methylation of C not given here) [Code F10]”, in the data set on XIAP mRNA [1], the “XIAP down-regulation H460 RNA” value came to 51%. Moreover, in the data set on XIAP mRNA [2], the “XIAP RNA” value was 0.64.
